Reference: ChEMBL document CHEMBL3734667 (Bioorg Med Chem, 2015)
pEC50: −log10 of the molar value. Active and inactive are the calls of the source. The rule behind the calls is not given here.

Legend:
Influenza B virus = experiment: Antiviral activity against Influenza B virus; format: functional
Yellow fever virus = experiment: Antiviral activity against YFV infected in BHK-21 cells assessed as inhibition of virus-induced cytopathogenicity after 3 to 4 days by MTT assay; format: functional, organism-based
Human alphaherpesvirus 1 = experiment: Antiviral activity against HSV1; format: functional, organism-based
[1] = test system: Mammalian orthoreovirus 1; experiment: Antiviral activity against Reo-1 virus infected in BHK-21 cells assessed as inhibition of virus-induced cytopathogenicity after 3 to 4 days by MTT assay; format: functional, cell-based; settings: Mammalian orthoreovirus 1, BHK-21
Human orthopneumovirus = experiment: Antiviral activity against human RSV infected in african green monkey Vero76 cells assessed as inhibition of virus-induced cytopathogenicity after 5 days by plaque reduction assay; format: functional, organism-based; settings: human respiratory syncytial virus, Vero 76, 120 h
[2] = Cytotoxicity against human MT4 cells assessed as cell viability after 96 hrs by MTT assay; format: cell-based
[3] = Selectivity index, ratio of CC50 for BHK-21 cells to EC50 for YFV; parameters: species or system Yellow fever virus
Coxsackievirus B5 = experiment: Antiviral activity against human CVB5 infected in african green monkey Vero76 cells assessed as inhibition of virus-induced cytopathogenicity after 3 days by plaque reduction assay; format: functional, organism-based; settings: Enterovirus B, Vero 76, 72 h
[4] = Selectivity index, ratio of CC50 for african green monkey Vero76 cells to EC50 for human RSV; parameters: species or system human respiratory syncytial virus, Vero 76
[5] = Selectivity index, ratio of CC50 for african green monkey Vero76 cells to EC50 for human CVB5; parameters: species or system Coxsackievirus B5, Vero 76
Vaccinia virus = experiment: Antiviral activity against Vaccinia virus; format: functional, organism-based; settings: Orthopoxvirus vaccinia
Poliovirus 1 = experiment: Antiviral activity against Human poliovirus 1 Sabin infected in african green monkey Vero76 cells assessed as inhibition of virus-induced cytopathogenicity by plaque reduction assay; format: functional, organism-based; settings: Enterovirus C, Vero 76
[6] = Cytotoxicity against african green monkey Vero 76 cells assessed as cell viability after 48 to 96 hrs by crystal violet staining method; format: cell-based; settings: chlorocebus sabaeus
[7] = test system: Human immunodeficiency virus 1; experiment: Antiviral activity against HIV-1 infected in MT4 cells assessed as inhibition of virus-induced cytopathogenicity after 4 days by MTT assay; format: functional, organism-based; settings: Human immunodeficiency virus 1, MT4, 96 h
[8] = test system: Bovine viral diarrhea virus 1; experiment: Antiviral activity against BVDV infected in MDBK cells assessed as inhibition of virus-induced cytopathogenicity after 3 to 4 days by MTT assay; format: functional, organism-based; settings: Bovine viral diarrhea virus isolates and strains
[9] = Cytotoxicity against MDBK cells assessed as cell viability after 48 to 96 hrs by MTT assay; format: cell-based, Bos taurus; settings: cattle
[10] = test system: Vesicular stomatitis virus; experiment: Antiviral activity against VSV; format: functional, organism-based
[11] = Cytotoxicity against BHK cells assessed as cell viability after 48 to 96 hrs by MTT assay; format: cell-based, Mesocricetus auratus; settings: hamster
[12] = Selectivity index, ratio of CC50 for african green monkey Vero76 cells to EC50 for human Sb-1; parameters: species or system Human poliovirus 1 strain Sabin, Vero 76
[13] = Selectivity index, ratio of CC50 for MDBK cells to EC50 for BVDV; parameters: species or system Bovine viral diarrhea virus 1
[14] = target: T1, Peroxisome proliferator-activated receptor alpha (Homo sapiens) (UniProt Q07869); experiment: Agonist activity at human PPAR alpha in human HepG2 cells after 20 hrs by luciferase reporter assay; format: cell-based
T1 sequence (whole entry): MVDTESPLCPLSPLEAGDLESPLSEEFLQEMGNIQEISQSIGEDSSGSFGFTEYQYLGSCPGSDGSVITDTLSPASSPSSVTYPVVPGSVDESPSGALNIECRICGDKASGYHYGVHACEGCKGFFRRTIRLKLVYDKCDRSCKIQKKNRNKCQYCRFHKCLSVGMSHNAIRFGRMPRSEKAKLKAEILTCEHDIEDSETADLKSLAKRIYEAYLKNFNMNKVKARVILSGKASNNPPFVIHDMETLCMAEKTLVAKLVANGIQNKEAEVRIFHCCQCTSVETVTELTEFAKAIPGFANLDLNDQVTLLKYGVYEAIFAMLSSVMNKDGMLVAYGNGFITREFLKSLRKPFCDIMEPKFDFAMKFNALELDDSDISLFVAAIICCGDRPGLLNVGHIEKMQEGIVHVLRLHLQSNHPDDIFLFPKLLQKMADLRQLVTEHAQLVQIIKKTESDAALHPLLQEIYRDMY

[15] = target: T2, Peroxisome proliferator-activated receptor gamma (Homo sapiens) (UniProt P37231); experiment: Agonist activity at human PPAR gamma in human HepG2 cells after 20 hrs by luciferase reporter assay; format: cell-based
T2 sequence (whole entry): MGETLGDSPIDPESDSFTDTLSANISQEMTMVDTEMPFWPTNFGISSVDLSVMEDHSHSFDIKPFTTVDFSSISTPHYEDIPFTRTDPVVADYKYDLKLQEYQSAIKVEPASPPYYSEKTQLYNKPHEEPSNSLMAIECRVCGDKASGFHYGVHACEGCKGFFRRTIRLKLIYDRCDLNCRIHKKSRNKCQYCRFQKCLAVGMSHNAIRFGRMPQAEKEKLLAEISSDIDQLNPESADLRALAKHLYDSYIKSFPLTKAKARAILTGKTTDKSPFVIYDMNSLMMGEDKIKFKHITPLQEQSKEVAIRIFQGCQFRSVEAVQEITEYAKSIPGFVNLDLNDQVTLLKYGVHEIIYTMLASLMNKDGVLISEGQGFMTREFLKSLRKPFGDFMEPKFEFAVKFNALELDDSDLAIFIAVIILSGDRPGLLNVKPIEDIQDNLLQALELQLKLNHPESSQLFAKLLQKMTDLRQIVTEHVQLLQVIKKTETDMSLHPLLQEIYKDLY

West Nile virus = experiment: Antiviral activity against WNV infected in BHK-21 cells assessed as inhibition of virus-induced cytopathogenicity after 3 to 4 days by MTT assay; format: functional, organism-based
dengue virus type 2 = experiment: Antiviral activity against DENV-2 infected in BHK-21 cells assessed as inhibition of virus-induced cytopathogenicity after 3 to 4 days by MTT assay; format: functional, organism-based

SMILES | pEC50 (Yellow fever virus) | pEC50 (Human alphaherpesvirus 1) | pEC50 [1] | pEC50 (Human orthopneumovirus) | CC50 at 96 h [2] [µM] | Ratio CC50/EC50 [3] | pEC50 (Coxsackievirus B5) | Ratio CC50/EC50 [4] | Ratio CC50/EC50 [5] | pEC50 (Vaccinia virus) | pEC50 (Poliovirus 1) | CC50 [6] [µM] | pEC50 [7] | pEC50 [8] | CC50 [9] [µM] | pEC50 [10] | CC50 [11] [µM] | Ratio CC50/EC50 [12] | Ratio CC50/EC50 [13] | further results
Oc1ccc2nn[nH]c2c1/N=N/c1ccc(Cl)cc1 | – | – | – | – | – | – | – | – | – | – | – | – | – | – | – | – | – | – | – | EC75 (Influenza B virus): 4.3 µM
FC(F)(F)c1ccc2c(c1)nnn2C[C@@H]1CCCN2CCCC[C@H]12 | 4.57 | < 4.00 | < 4.00 | 4.05 | > 100 | >3.7 | 4.42 | >1.11 | >2.63 | < 4.00 | < 4.00 | > 100 | < 4.00 | < 4.00 | > 100 | < 4.00 | > 100 | – | – | –
C#C[C@@]1(O)[C@H](O)[C@@H](CO)O[C@H]1n1ccc(N)nc1=O [2'-ETHYNYL-D-CYTIDINE] | < 4.00 | < 4.00 | < 4.00 | < 4.00 | > 100 | – | 4.52 | – | >3.3 | < 4.00 | 4.60 | > 100 | – | – | > 100 | < 4.00 | > 100 | >4 | >2.6 | –
Clc1cc2nnn(C3CCCCO3)c2cc1Cl (stereo unspecified) | < 4.00 | < 4.00 | < 4.00 | – | > 100 | – | – | – | – | – | 4.22 | ≥ 100 | < 4.00 | < 4.00 | > 100 | < 4.00 | > 100 | 1.67 | – | –
COc1ccc2nn(-c3ccc(OCCCC(C)(C)C(=O)O)cc3)nc2c1 | < 4.00 | – | – | < 4.00 | 28 | – | 5.70 | – | 10 | < 4.00 | < 4.00 | 20 | < 4.00 | 4.36 | > 100 | < 4.00 | 50 | – | 2.27 | –
Oc1ccc(-n2nc3ccccc3n2)cc1 | ≤ 4.08 | – | – | – | > 100 | – | < 4.00 | – | – | < 4.00 | 5.15 | 90 | < 4.00 | 4.77 | ≥ 100 | < 4.00 | 83 | 12.86 | >5.88 | –
CC(C)(COc1ccc(-n2nc3ccccc3n2)cc1)C(=O)O | < 4.00 | – | – | 4.60 | > 100 | – | < 4.00 | 2.8 | – | < 4.00 | < 4.00 | 70 | < 4.00 | 4.36 | > 100 | < 4.00 | > 100 | – | >2.27 | Activity [14]: inactive; Activity [15]: inactive
CC(=O)Nc1ccc(-n2nc3ccccc3n2)cc1 | < 4.00 | – | 4.08 | < 4.00 | 66 | – | 4.40 | – | >2.5 | < 4.00 | < 4.00 | > 100 | < 4.00 | 4.15 | 100 | < 4.00 | > 100 | – | 1.43 | –
CC(C)(CCCOc1ccc(-n2nc3ccccc3n2)cc1)C(=O)O | < 4.00 | – | – | 5.30 | 47 | – | 5.40 | 5 | 6.25 | < 4.00 | < 4.00 | 25 | < 4.00 | 4.57 | 61 | < 4.00 | 31 | – | 2.26 | Activity [14]: inactive; Activity [15]: inactive
C[C@@]1(O)[C@H](O)[C@@H](CO)O[C@H]1n1cnc2c(=O)[nH]c(N)nc21 [2'-B-METHYL-GUANOSINE] | 5.82 | < 4.00 | – | < 4.00 | > 100 | >66.7 | 4.70 | – | >5 | < 4.00 | < 4.00 | > 100 | – | – | > 100 | < 4.00 | > 60 | – | >58.8 | pEC50 (West Nile virus): 6.15; pEC50 (dengue virus type 2): 5.92
COc1ccc2nn(-c3ccc(OCC(C)(C)C(=O)O)cc3)nc2c1 | < 4.00 | – | – | 4.96 | ≥ 100 | – | 4.62 | 5.91 | 2.71 | < 4.00 | < 4.00 | 65 | < 4.00 | 4.18 | > 100 | < 4.00 | 100 | – | >1.51 | Activity [14]: inactive; Activity [15]: inactive
Nc1ccc(-n2nc3ccccc3n2)cc1 | 4.12 | – | 4.05 | < 4.00 | ≥ 100 | 1.33 | < 4.00 | – | – | < 4.00 | < 4.00 | > 100 | < 4.00 | 4.46 | 100 | < 4.00 | 100 | – | 2.86 | –
CC(C)(COc1ccc(-n2nc3ccc(Cl)cc3n2)cc1)C(=O)O | < 4.00 | – | – | 4.92 | 94 | – | 5.77 | 3.33 | 23.53 | < 4.00 | < 4.00 | 40 | < 4.00 | 4.68 | 52 | < 4.00 | 47 | – | 2.47 | –
COc1ccc(-n2nc3ccc(C(F)(F)F)cc3n2)cc1 | < 4.00 | < 4.00 | < 4.00 | < 4.00 | > 100 | – | 4.10 | – | >1.25 | < 4.00 | 4.40 | > 100 | < 4.00 | < 4.00 | > 100 | < 4.00 | > 100 | >2.5 | – | –
Cc1cc(CCCOc2c(C)cc(-c3noc(C(F)(F)F)n3)cc2C)on1 [PLECONARIL] | – | – | – | – | – | 8750 | 8.10 | – | – | – | 5.70 | 70 | – | – | – | – | – | 35 | – | –
O=c1cnn([C@@H]2O[C@H](CO)[C@@H](O)[C@H]2O)c(=O)[nH]1 [6-AZAURIDINE] | – | < 4.00 | < 4.00 | 5.92 | – | >3.8 | < 4.00 | 16.7 | – | 4.96 | < 4.00 | – | – | < 4.00 | > 100 | < 4.00 | > 100 | – | – | –
